From US20030083313A1, “Means of tumor therapy” (priority 1998, published 2003)

Tests used:
breast cancer 3366/Tam = experiment: Therapeutic effectivity on tamoxifen-resistant breast cancer xenograft, tumor growth as T/C; type: in vivo; conditions: 3366/Tam tumor on female NMRI nude mice; dose Tam/Lipid mg/kg/injection as per group (50/0, 50/25, 0/25), twice a day for 4 weeks
Experimental: (§1) Tam liposomes according to Example 4 are used for the in vivo treatment test. As a tumor model, breast cancer 3366/Tam is transplanted onto female NMRI nude mice and the treatment started when the tumor is palpable. The animals are given one dose of liposomes with 50 mg/kg Tam (and correspondingly 25 mg/kg OPP) twice a day for 4 weeks. As controls, liposomes containing no Tam are administered, in addition one group being treated with free Tam. The tumor growth in relation to the control group (physiological salt solution) is determined and portrayed as a percentage T/C, as shown in FIG. 1 and in Table 1. […] The living cells were determined with the MTT assay.

[1] = Alteration of body weight in the in vivo treatment test; conditions: 3366/Tam-bearing female NMRI nude mice, dose Tam/Lipid mg/kg/injection as per group, twice a day for 4 weeks
Experimental: as §1

Alteration of body weight % (day 29/51) [1]: −5%
Compound: CC/C(=C(\c1ccccc1)c1ccc(OCCN(C)C)cc1)c1ccccc1 [tamoxifen]
T/C (tumor growth in relation to the control group, physiological salt solution) (breast cancer 3366/Tam): 91%
